Measured values published in article PMC4213378, “Pharmacokinetics and Efficacy of the Spleen Tyrosine Kinase Inhibitor R406 after Ocular Delivery for Retinoblastoma” (Pharmaceutical Research, 2014).
In brackets after ≈: the same amount, converted by molar mass. Values belong to the compound of their own block, whether it stands above or below them.

Assays:
[1] = Plasma pharmacokinetics after oral or subconjunctival administration; assay type: in vivo, mouse; conditions: local (subconjunctival), castor oil emulsion 6.5 mM, 65 nmol per eye; mice
Description: (§1) For oral delivery of R788, the target dose of 25 mg/kg R788 was administered by oral gavage as a 4 mM solution in 0.01 N citrate buffer, pH 6 ([9]). For subconjunctival administration, R788 was prepared at a concentration of 4 mM in 2% PEG-800 and filtered through a 0.22 μm filter prior to use (see Table S1). R788 was also administered subconjunctivally as a suspension at a concentration of 25 mM in 10% 2-hydroxylpropyl-β-cyclodextrin (HPβCD, Sigma-Aldrich). For subconjunctival administration, R406 phenylsulfonate salt was administered at a concentration of 800–900 μM as a cosolvent solution in a formulation of 5% Cremaphor-eL, 0.5% ethanol, 0.2% Tween 80 and 94.3% PBS, filtered through a 0.22 μm filter prior to use (see Table S2). R406 phenylsulfonate salt was also administered subconjunctivally at a dose of 31.4 mM solution in DMSO. R406 free base was administered subconjunctivally at a concentration of 6.5 mM as a 25% castor oil (Sigma-Aldrich) emulsion. This emulsion was prepared by mixing castor oil: ethanol (1:1) solution of R406 (approx. 35 mM), in vacuo evaporation of the ethanol, and centrifugation to remove any excess R406, then emulsifying the R406 oil phase in an aqueous phase comprised of Cremaphor-eL, Tween 80 and PBS (final composition of the emulsion: 25% castor oil, 5% Cremaphor-eL, 0.2% Tween-80, 69.8% PBS) by probe sonication. For intravitreal injection, R788 solution was prepared by filtering a 0.12 mM (120 μM) solution of R788 in saline through a 0.22 μm filter. […] For topical delivery, 25–30 mM suspensions were prepared in 5% HPβCD. R406 or R788 concentration in all formulations was determined by UPLC prior to study (in cases where formulation was filtered before administration, concentration was determined post-filtering) Table I.
(§2) For the systemic delivery study R788 was administered as a single bolus dose (25 mg/kg, 10 mL/kg volume) by oral gavage. For the subconjunctival administration study R788 or R406 (10 µL of formulation) was injected into the subconjunctival space of an anesthetized mouse using a Hamilton microliter syringe (Hamilton company, Reno NV). For the intravitreal administration study, R788 (5 μL of […] in saline) was administered to each eye via direct injection. To perform the intravitreal injection, mice were anesthetized, a small incision between the sclera and the cornea was created with a […] needle, and the R788 was injected into the vitreous using a Hamilton microliter syringe. For the topical administration study, R406 (2 μL of 25–30 mM suspension) was applied as a drop to the surface of each eye of an anesthetized mouse.
(§3) At serial time points (0.5, 1, 2, 4, and 8 h post-injection, n = 3 for each time point), blood was collected by terminal cardiac puncture after isoflurane anesthesia. Whole-blood samples were centrifuged immediately at 10,000×g for 5 min at 4°C to separate plasma. Once the cardiac puncture and blood collection was completed, the animal was perfused with 10 mL of saline and euthanized by cervical dislocation. Eyes were removed, rinsed in PBS, gently patted dry, then rinsed and dried again. Eyes were dissected and vitreous was collected. Plasma and vitreous samples were put on dry ice immediately after collection and stored at −80°C until analysis. For quantitative analysis methods and assay validation methods and results, see Supplementary Information.
(§4) Plasma and vitreous concentration time data were analyzed using non-compartmental analysis in WinNonlin 6.2 (Pharsight, Mountain View, CA), providing PK parameters including Cmax (maximum observed concentration), Tmax (time to reach maximum observed concentration), AUC (area under the concentration time curve) and MRT (mean residence time). AUC and AUMC (area under the concentration time first moment curve) values were estimated with the linear trapezoidal method, with parameters calculated using mean concentration values at each time point. […]

[2] = Vitreous pharmacokinetics after oral or subconjunctival administration; assay type: in vivo, mouse; conditions: local (subconjunctival), castor oil emulsion 6.5 mM, 65 nmol per eye, mice
Description: as §1, §2, §3, §4

[3] = Intraocular and plasma R406 after topical administration (eye drops); assay type: in vivo, mouse; conditions: mice; for R406 levels in the eye at 0.5 h post dosing / R406 levels in the eye at 1 h post dosing / drug in plasma samples: single topical dose; for R406 levels in the eye at 0.5 h post dosing / R406 levels in the eye at 1 h post dosing: drops, 2 μL of 25 mM suspension in 5% HPβCD; for drug in plasma samples: data not shown
Description: as §1, §2, §3
To evaluate the topical route for R406 delivery, we tested the intraocular concentration after a single topical dose of R406 free base or an R406 […] salt.

[4] = Maximum solubility in PBS or saline; assay type: physicochemical
[5] = Concentration and stability of R406 in castor oil and castor oil emulsion; assay type: physicochemical
Description: as §1
An emulsion of 30% castor oil, 5% Cremaphor, 4% T80, 61% PBS was prepared and samples were stored at 4 °C and room temperature (25 °C). Samples were diluted and OD600 for each dilution was measured in triplicate on the day of emulsion preparation (storage time = 0 days) and after 6 days of storage. OD600 was measured using a black Costar clear bottom plate and a Spectramax plate reader.
For storage stability in emulsion, n =4.

[6] = Crashing upon dilution of DMSO stock in PBS; assay type: physicochemical
From the text: Supplement 11095_2014_1399_MOESM1_ESM.docx, table 14: Table S14. R406 phenylsulfonate salt and free base crashing upon dilution of DMSO stock in PBS | column: Measured Concentration

[7] = test system: retinoblastoma cells; parameters: method as in PMID 22237022; conditions: cited from earlier work
[8] = test system: human orthotopic retinoblastoma xenografts; parameters: method as in PMID 22237022; conditions: cited from earlier work
[9] = parameters: method as in PMID 21515735; conditions: subconjunctival administration; previous work; cited from earlier work
[10] = parameters: method as in PMID 21515735; conditions: previous work; cited from earlier work
[11] = Vitreous and plasma R406 after intravitreal injection of R788; assay type: in vivo, mouse; conditions: intravitreal injection of R788 in saline, 5 μL per eye of 120 μM; mice
Description: For oral delivery of R788, the target dose of 25 mg/kg R788 was administered by oral gavage as a 4 mM solution in 0.01 N citrate buffer, pH 6 ([9]). For subconjunctival administration, R788 was prepared at a concentration of 4 mM in 2% PEG-800 and filtered through a 0.22 μm filter prior to use (see Table S1). R788 was also administered subconjunctivally as a suspension at a concentration of 25 mM in 10% 2-hydroxylpropyl-β-cyclodextrin (HPβCD, Sigma-Aldrich). For subconjunctival administration, R406 phenylsulfonate salt was administered at a concentration of 800–900 μM as a cosolvent solution in a formulation of 5% Cremaphor-eL, 0.5% ethanol, 0.2% Tween 80 and 94.3% PBS, filtered through a 0.22 μm filter prior to use (see Table S2). R406 phenylsulfonate salt was also administered subconjunctivally at a dose of 31.4 mM solution in DMSO. […] R406 or R788 concentration in all formulations was determined by UPLC prior to study (in cases where formulation was filtered before administration, concentration was determined post-filtering) Table I. […]
At serial time points (0.5, 1, 2, 4, and 8 h post-injection, n = 3 for each time point), blood was collected by terminal cardiac puncture after isoflurane anesthesia. […] For quantitative analysis methods and assay validation methods and results, see Supplementary Information.

[12] = Bioconversion of R788 to R406 in mouse vitreous; assay type: in vitro ADME; conditions: extracted mouse vitreous, 37°C, initial 25 μM R788, within 2 h
Description: Conversion of R788 to R406 was examined in freshly harvested murine vitreous, 2 U/mL bovine alkaline phosphatase in PBS (positive control), or plain PBS (no enzyme, negative control) at 37°C using a modified version of previously described phosphate prodrug conversion protocols ([9], [12]). Alkaline phosphatase (ALP) from bovine intestinal mucosa was obtained from Invitrogen and was reconstituted and diluted according to the manufacturer’s instructions. Vitreous was harvested from a mixed population of mice, pooled, and kept on ice for 1 - 2 h. The incubation media were pre-warmed to 37°C before the reaction was initiated by addition of 1 mM of R788 in saline (6 μL of R788 in saline into 234 μL of incubation media in a 1.5 mL Eppendorf tube). R788 was diluted into the incubation media at a 1:40 ratio (volume:volume) to mimic the dilution encountered during intravitreal injection in humans (typically 100 μL injection volume into 4–5 mL of human vitreous volume ([13], [14]). Initial estimated concentration of R788 was 25 μM. At the desired time points (0, 5, 10, 20, 30, 45, 60, and 120 min) an aliquot of 25 μl was collected from each incubation vial and transferred to a 1.5 mL Eppendorf tube, containing 25 μl of acetonitrile to terminate the reaction. 3 samples were tested per time point. Samples were stored at −80°C until quantification.

[13] = Co-solvent solution formulation solubility matrix; assay type: physicochemical; conditions: read-out: R788 Solubility

SMILES: COc1cc(Nc2ncc(F)c(Nc3ccc4c(n3)NC(=O)C(C)(C)O4)n2)cc(OC)c1OC [R406 free base]
Cmax [1]: 119 nM
Plasma AUClast [1]: 119 nM·h
Plasma Dose normalized AUC [1]: 0.9 nM∙h/nmol
Plasma Tlast [1]: 2 h
Plasma Tmax [1]: 30 min
Cmax [2]: 169 ± 35.9 nM
Vitreous AUClast [2]: 430 nM·h
Vitreous Dose normalized AUC [2]: 3.3 nM∙h/nmol
Vitreous MRT0-4h [2]: 2.19 h
Vitreous Tlast [2]: 4 h
Vitreous Tmax [2]: 30 min
Vitreous MRT0-4h ([2]; listed as R406 base): ≥ 2 h
R406 levels in the eye at 0.5 h post dosing [3]: 0.1 ± 0.06 µM
R406 levels in the eye at 1 h post dosing [3]: 0.1 ± 0.1 µM
drug in plasma samples [3]: No detectable drug
solubility in PBS ([4]; PBS): insoluble (below the limit of quantitation)
time stable in castor oil ([5]; room temperature): at least 6 days
average concentration remaining, % of the initial concentration ([5]; stored in castor oil at room temperature, after 6 days, n=3): 113.3%
Measured Concentration ([6]; DMSO stock diluted 1 in 10 in PBS prior to filtration (theoretical 1.11 mM)): 965 µM
Measured Concentration ([6]; DMSO stock diluted 1 in 10 in PBS, 0.22 micron filtered): 7 µM
Measured Concentration ([6]; DMSO stock diluted 1 in 20 in PBS, 0.22 micron filtered): 6 µM
Measured Concentration ([6]; DMSO stock, printed 'diluted 1 in 10 in PBS prior to filtration' (second such line, theoretical 557 µM)): 510 µM

SMILES: COc1ccc(-c2cc3nccn3c(Nc3ncccc3C(N)=O)n2)cc1OC [BAY-61-3606]
induction of caspase-mediated cell death of retinoblastoma cells in vitro [7]: can induce caspase-mediated cell death
blocking proliferation of human orthotopic retinoblastoma xenografts in vivo [8]: efficacious

SMILES: COc1ccc(C2=N[C@@H](c3ccc(Cl)cc3)[C@@H](c3ccc(Cl)cc3)N2C(=O)N2CCNC(=O)C2)c(OC(C)C)c1 [nutlin-3a]
AUC ratio of vitreous to plasma [9]: 28.6
water solubility [10]: approximately 40 μM

SMILES: CCCCCCCCCCCCCCCC(=O)O.COc1cc(Nc2ncc(F)c(Nc3ccc4c(n3)NC(=O)C(C)(C)O4)n2)cc(OC)c1OC [R406 palmitate salt]
R406 levels in the eye at 0.5 h post dosing [3]: 0.3 ± 0.3 µM
R406 levels in the eye at 1 h post dosing [3]: 0.3 ± 0.2 µM
drug in plasma samples [3]: No detectable drug
vitreous concentration of R406 ([3]; topical 40 mM R406 palmitate 5% cyclodextrin suspension, 1-4 hourly doses, sustained for 1.5 h after each application): 1 to 2 µM
Cmax ([3]; topical delivery in cyclodextrin drops, sustainable via repeated dosing, read-out: vitreous Cmax / intraocular concentration): > 1000 nM

R406 levels in plasma samples [11]: BLOQ
conversion of R788 to R406 [12]: 100%
solubility ([4]; PBS, read-out: maximum solubility in PBS): 1400 µM (≈ 813 µg/mL)
solubility ([4]; saline, read-out: maximum solubility in saline): 1200 to 1400 µM (≈ 697 to 813 µg/mL)
solubility ([13]; Trial 2: 2% PEG-8000, 98% PBS): 3560 µM (≈ 2070 µg/mL)
solubility ([13]; aqueous buffer, Trial 3: 0.5% EtOH, 99.5% PBS): 1010 µM (≈ 586 µg/mL)
solubility ([13]; aqueous buffer, Trial 4: 3% Glycerin, 97% PBS): 1130 µM (≈ 656 µg/mL)
solubility ([13]; aqueous buffer, Trial 9: 100% PBS): 1240 µM (≈ 720 µg/mL)
solubility ([13]; aqueous with cosolvent or surfactant or cyclodextrin, Trial 1: 0.1% Tyloxapol, 99.9% PBS): 1230 µM (≈ 714 µg/mL)
solubility ([13]; aqueous with cosolvent or surfactant or cyclodextrin, Trial 5: 5% Cremaphor-eL, 95% PBS): 1430 µM (≈ 830 µg/mL)
solubility ([13]; aqueous with cosolvent or surfactant or cyclodextrin, Trial 6: 10% PPG, 90% PBS): 1130 µM (≈ 656 µg/mL)
solubility ([13]; aqueous with cosolvent or surfactant or cyclodextrin, Trial 7: 15% pPPG, 85% PBS): 1530 µM (≈ 888 µg/mL)
solubility ([13]; aqueous with cosolvent or surfactant or cyclodextrin, Trial 8: 4% Tween-80, 96% PBS): 1710 µM (≈ 993 µg/mL)
solubility ([13]; aqueous with cosolvent or surfactant or cyclodextrin, Trial 10: 5% Cremaphor-eL, 4% Tween-80, 91% PBS): 1510 µM (≈ 877 µg/mL)
solubility ([13]; aqueous with cosolvent or surfactant or cyclodextrin, Trial 11: 15% pPPG, 4% Tween-80, 81% PBS): 1840 µM (≈ 1070 µg/mL)
solubility ([13]; aqueous with cosolvent or surfactant or cyclodextrin, Trial 12: 5% Cremaphor-eL, 15% pPPG, 80% PBS): 2150 µM (≈ 1250 µg/mL)
solubility ([13]; aqueous with cosolvent or surfactant or cyclodextrin, Trial 13: 5% Cremaphor-eL, 15% pPPG, 4% Tween-80, 76% PBS): 2640 µM (≈ 1530 µg/mL)
solubility ([13]; aqueous with cosolvent or surfactant or cyclodextrin, Trial 14: 2% PEG-8000, 5% Cremaphor-eL, 15% pPPG, 4% Tween-80, 74% PBS): 3470 µM (≈ 2010 µg/mL)
SMILES: COc1cc(Nc2ncc(F)c(Nc3ccc4c(n3)N(COP(=O)(O)O)C(=O)C(C)(C)O4)n2)cc(OC)c1OC [R788]
